{
  "source": "paper PMC3163566",
  "about": "“Combined analysis of transcriptome and metabolite data reveals extensive differences between black and brown nearly-isogenic soybean (Glycine max) seed coats enabling the identification of pigment isogenes” (BMC Genomics, 2011)",
  "key": {"OMT5": {"molecular_target": "T1, OMT5 (Glycine max, UniProt F2YBA9)", "T1 construct": "full-length CDS, N-terminal His6 tag (pET-14b), E. coli BL21(DE3) pLysS, IMAC purified; primers based on mRNA BT098523", "T1 sequence (F2YBA9 1-248)": "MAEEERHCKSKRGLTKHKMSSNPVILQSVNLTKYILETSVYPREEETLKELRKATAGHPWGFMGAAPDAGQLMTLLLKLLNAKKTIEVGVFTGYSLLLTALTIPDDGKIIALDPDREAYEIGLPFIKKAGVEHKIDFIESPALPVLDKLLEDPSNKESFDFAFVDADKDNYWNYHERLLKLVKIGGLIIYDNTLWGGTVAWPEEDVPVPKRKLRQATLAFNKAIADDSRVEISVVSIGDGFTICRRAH", "assay": "HPLC-DAD and HPLC-MS/MS product detection", "format": "biochemical", "conditions": "methyl acceptor; SAM 100 uM, MgCl2 150 uM, Tris pH 7.5, 35 °C, 1 h; product peonidin-3-O-glucoside"}, "UGT78K2": {"molecular_target": "T2, UGT78K2 (Glycine max, UniProt G0WMC8)", "T2 construct": "full-length CDS, N-terminal His6 tag (pET-14b), E. coli BL21(DE3) pLysS, IMAC purified", "T2 sequence (G0WMC8 1-447)": "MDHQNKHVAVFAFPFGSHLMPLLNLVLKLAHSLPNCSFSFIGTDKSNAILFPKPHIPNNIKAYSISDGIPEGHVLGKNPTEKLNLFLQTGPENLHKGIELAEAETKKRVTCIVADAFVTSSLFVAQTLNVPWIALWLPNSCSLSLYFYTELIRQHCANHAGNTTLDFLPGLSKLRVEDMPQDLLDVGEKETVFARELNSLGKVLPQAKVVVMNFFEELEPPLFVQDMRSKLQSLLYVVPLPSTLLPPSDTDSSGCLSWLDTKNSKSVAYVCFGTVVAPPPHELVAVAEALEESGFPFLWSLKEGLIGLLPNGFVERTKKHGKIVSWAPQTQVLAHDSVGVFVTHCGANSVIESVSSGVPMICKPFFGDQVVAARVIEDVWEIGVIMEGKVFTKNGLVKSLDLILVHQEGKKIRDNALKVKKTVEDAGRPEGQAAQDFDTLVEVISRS", "assay": "HPLC-DAD and HPLC-MS/MS product detection", "format": "biochemical", "conditions": "glucose acceptor; 5 mM UDP-glucose; 30 °C, 5 min; product cyanidin-3-O-glucoside"}},
  "data": [
    {"smiles": "OC[C@H]1O[C@@H](Oc2cc3c(O)cc(O)cc3[o+]c2-c2ccc(O)c(O)c2)[C@H](O)[C@@H](O)[C@@H]1O", "note": "[cyanidin-3-O-glucoside]", "values": [
      {"measurement": "HPLC-DAD and HPLC-MS/MS product detection", "setting": "OMT5", "value": "methyl donor and cyanidin-3-O-glucoside as the acceptor, the recombinant enzyme transferred a methyl group"}
    ]},
    {"smiles": "Oc1cc(O)c2cc(O)c(-c3ccc(O)c(O)c3)[o+]c2c1", "note": "[cyanidin]", "values": [
      {"measurement": "HPLC-DAD and HPLC-MS/MS product detection", "setting": "UGT78K2", "value": "the recombinant enzyme transferred glucose to the 3-position of cyanidin to form cyanidin-3-O-glucoside"}
    ]}
  ]
}
